This experiment addresses T1, glyc-HS2ST (glycosylated human HS2ST), WT (Homo sapiens, UniProt Q7LGA3).
T1 construct: the human HS2ST catalytic domain region comprising of 328 amino acid residues; His8 (N, cleaved yes); AviTag (N, cleaved yes); superfolder GFP (N, cleaved yes); made in house; host or cells: HEK293-F (transient transfection, secreted)
T1 sequence (Q7LGA3 29-356 limits assumed): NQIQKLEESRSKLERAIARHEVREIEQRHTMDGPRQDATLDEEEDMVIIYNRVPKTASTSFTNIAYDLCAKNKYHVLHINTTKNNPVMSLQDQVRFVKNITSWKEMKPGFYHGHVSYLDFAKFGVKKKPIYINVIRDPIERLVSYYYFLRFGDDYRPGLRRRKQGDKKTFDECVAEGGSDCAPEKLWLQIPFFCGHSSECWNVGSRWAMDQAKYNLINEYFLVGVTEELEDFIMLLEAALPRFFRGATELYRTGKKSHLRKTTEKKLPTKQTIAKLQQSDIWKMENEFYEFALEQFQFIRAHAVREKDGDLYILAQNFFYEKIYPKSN
Nature of the experiment: BLI equilibrium binding, glyc-HS2ST WT. Particulars: BLI saturation binding curves, biotin-PEG4-linked hexasaccharide immobilised on sensor, n = 3, ± standard error of fit, 25 °C, PBS pH 7.8. The text has this:
HS-protein binding studies often utilize biologically-derived oligosaccharides of heterogeneous length and sulfation[34],[35]; however, the synthesis of oligosaccharides with defined length and specific sulfation patterns has recently become possible. We employed biolayer interferometry (BLI) to determine equilibrium surface binding constants (KD) for HS2ST with synthetic HS hexasaccharides (Fig. 1 and Supplementary Table 1). The HS compounds were attached to the BLI biosensor surface to conserve sample and to ensure a significant signal upon protein binding. The HS compounds contained a biotinylated PEG4 linker at the reducing terminus, enhancing the likelihood of a consistent presentation of the linear glycan on the sensor surface, in contrast to immobilizations via intra-chain modifications. […]
An expression construct was generated encoding the truncated catalytic domain of human HS2ST as an NH2-terminal fusion protein in the pGEn2 expression vector essentially as described in prior studies. […] The recombinant human HS2ST was expressed as a soluble secreted protein by transient transfection of suspension culture HEK293-F cells (FreeStyle^TM 293-Fcells, Thermo Fisher Scientific, Waltham MA) maintained at 0.5–3.0 × 10^6 cells/ml in a humidified CO2 platform shaker incubator at 37 °C with 55% humidity. […]

As to “GlcNS-GlcA-GlcNS-IdoA2S-GlcNS-GlcA~ [Compound 2]”, the Kd turned out to be 138 ± 19 nM.

One may read the Kd as the concentration at which binding is half-saturated. Higher therefore signals weaker binding.

Values taken from article PMC6081452, “Downstream Products are Potent Inhibitors of the Heparan Sulfate 2-O-Sulfotransferase” (Scientific Reports, 2018).
